Entries after “also recorded” stand apart in the source; their conditions may differ.
Assays:
Format in all cases: cell-based
SH-SY5Y cells = assay: In vitro neurotoxicity, cell viability (AlamarBlue)
Description: HEK293 cells were grown in Dulbecco's […] (DMEM) supplemented with 10% FBS and 5% penicillin/streptomycin (Corning). SY-SY5Y cells were grown with a mixture of DMEM/Ham's F-12 with 2 mM L-glutamine (50:50 v/v) supplemented with 10% FBS and 5% penicillin/streptomycin. All cultures were grown in 37° C. incubators supplemented with 5% CO2 and were cultured according to suppliers' instructions. For all screening, cells were plated in 96-well plates at 10,000 cells per well in 100 μL of the appropriate media outlined above for the different cells. The formulated LNPs containing polymyxin B and free polymyxin B were then added to the wells at the desired polymyxin B concentration (e.g., 300, 150, 75, 37.5, 18.8, 9.4 μg mL^−1). The polymyxin B concentration of formulated LNPs was determined using the calibration plot of polymyxin B standards.

[1] = system: Escherichia coli (ATCC No. 25922); assay: Antibacterial activity in vitro, broth microdilution MIC and MBC; conditions: for MIC E. coli: 24 h at 37° C.
Description: (§1) The MICs (minimum inhibitory concentrations) of the formulated LNPs containing polymyxin B and free polymyxin B against Gram-negative bacteria were determined using a broth microdilution method. Briefly, the bacteria were incubated overnight in MHB, and the bacteria suspension was diluted with MHB to achieve a concentration of […] (CFU)/mL (O.D. 600=0.100). This was followed by a 1000-fold dilution in MHB. The bacterial suspension was then seeded into a 96-well plate (80 μL per well) and mixed with 20 μL of MHB containing different polymyxin B-loaded LNPs or free polymyxin B concentrations. The 96-well plate was incubated for 24 h at 37° C. (bacteria). […] The MIC experiments were performed with four independent replicates. The MBCs (minimum bactericidal concentrations) were evaluated at the end of the MIC experiment.
(§2) The microbial suspension was then spread on LB agar plates, and the plates were incubated at 37° C. for 24 h to determine CFU on each agar plate. The experiments were performed in replicates of five. The MBC experiment was conducted with three independent replicates.

[2] = system: Pseudomonas aeruginosa (ATCC No. 9027); assay: as above; conditions: for MIC P. aeruginosa: 24 h at 37° C.
Description: as §1, §2

[3] = Table 6, experiment with 2nd formulation
[4] = Table 7, experiment with 1st formulation

With Polymyxin B [Polymyxin B (PB)] as the substance, how does the “viability of SH-SY5Y cells” value (SH-SY5Y cells; 300 μg mL^−1 of polymyxin B, 24 h incubation) read?
Its value is ~ 76%.

What about the “neurotoxicity / cell toxicity against SH-SY5Y” value (SH-SY5Y cells; high concentration, 300 μg mL^−1, listed as free polymyxin B) of the same substance?
The value was “relatively pronounced cell toxicity; also recorded: Pronounced neurotoxicity was observed”.

And the “MBC E. coli” value [1, 3]?
The value was 5.0 µg/mL.

What about the “MIC E. coli” value [1, 3] of the same substance?
The value was 1.25 µg/mL.

And the “MBC E. coli” value [1, 4]?
Its value is 5.0 µg/mL.

And the “MIC E. coli” value [1, 4]?
The value was 5.0 µg/mL.

And the “MBC P. aeruginosa” value [2, 3]?
The value was 2.50 µg/mL.

And the “MIC P. aeruginosa” value [2, 3]?
The value was 1.25 µg/mL.

What about the “MBC P. aeruginosa” value [2, 4] of the same substance?
The value was 5.0 µg/mL.

And the “MIC P. aeruginosa” value [2, 4]?
Its value is 5.0 µg/mL.

— patent publication US20260283972A1, “A COMPOUND FOR PREPARING LIPID NANOPARTICLES ENCAPSULATING AN AGENT, NANOPARTICLE COMPOSITION COMPRISING SAID COMPOUND AND RELATED METHODS THEREOF” (AGENCY FOR SCIENCE, TECHNOLOGY AND RESEARCH, priority 2023, published 2026)
